Experimental data as given in publication PMC11500612, “Differential effects of inosine monophosphate dehydrogenase (IMPDH/GuaB) inhibition in Acinetobacter baumannii and Escherichia coli” (Journal of Bacteriology, 2024).

Tests used:
Type in all cases: biochemical
GuaB^Sa = GuaB^Sa (Staphylococcus aureus, UniProt Q2FJM6); assay: NADH production, NAD(P)H-Glo luminescence
Text: NADH production, NAD(P)H-Glo luminescence on GuaB^Sa

GuaB^Ec = molecular target: T1, GuaB^Ec (Escherichia coli, UniProt P0ADG7); assay: NADH production, absorbance at […] nm
T1 sequence (P0ADG7 1-488): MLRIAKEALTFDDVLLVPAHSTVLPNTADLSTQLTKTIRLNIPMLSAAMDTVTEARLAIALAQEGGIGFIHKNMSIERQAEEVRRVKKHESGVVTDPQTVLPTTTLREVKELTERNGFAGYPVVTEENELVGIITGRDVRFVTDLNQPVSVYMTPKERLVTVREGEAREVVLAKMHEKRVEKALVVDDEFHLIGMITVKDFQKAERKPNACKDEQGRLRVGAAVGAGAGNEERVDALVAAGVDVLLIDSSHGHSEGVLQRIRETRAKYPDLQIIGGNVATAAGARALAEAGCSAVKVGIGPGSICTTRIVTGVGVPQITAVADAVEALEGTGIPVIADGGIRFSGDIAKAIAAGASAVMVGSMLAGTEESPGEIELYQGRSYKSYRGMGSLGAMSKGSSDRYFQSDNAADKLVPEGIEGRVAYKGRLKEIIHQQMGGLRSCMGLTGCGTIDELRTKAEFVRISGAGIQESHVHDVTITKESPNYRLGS

hIMPDH2 = molecular target: T2, hIMPDH2 (Homo sapiens, UniProt P12268); assay: enzyme inhibition, method not given
T2 construct: gene IMPDH2; not described in the main text
T2 sequence (P12268 2-514): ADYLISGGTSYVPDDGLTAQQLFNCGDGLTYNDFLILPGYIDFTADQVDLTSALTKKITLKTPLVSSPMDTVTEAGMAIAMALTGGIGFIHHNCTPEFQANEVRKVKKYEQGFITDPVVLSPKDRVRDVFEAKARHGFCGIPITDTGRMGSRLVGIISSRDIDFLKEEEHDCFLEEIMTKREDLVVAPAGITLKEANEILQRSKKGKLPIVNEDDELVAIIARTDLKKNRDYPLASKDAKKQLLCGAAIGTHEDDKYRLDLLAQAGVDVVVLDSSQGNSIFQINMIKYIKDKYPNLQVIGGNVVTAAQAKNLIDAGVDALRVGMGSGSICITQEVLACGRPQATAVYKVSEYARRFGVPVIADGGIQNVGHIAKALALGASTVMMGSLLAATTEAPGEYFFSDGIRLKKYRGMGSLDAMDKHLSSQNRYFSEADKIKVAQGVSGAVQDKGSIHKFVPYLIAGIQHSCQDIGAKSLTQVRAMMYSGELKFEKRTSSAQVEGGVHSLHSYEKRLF
Text: enzyme inhibition, method not described in main text on hIMPDH2

GuaB^Ab = molecular target: T3, GuaB^Ab (Acinetobacter baumannii, UniProt D0CF46); assay: NADH production, NAD(P)H-Glo luminescence
T3 construct: recombinant A. baumannii GuaB
T3 sequence (D0CF46 1-488): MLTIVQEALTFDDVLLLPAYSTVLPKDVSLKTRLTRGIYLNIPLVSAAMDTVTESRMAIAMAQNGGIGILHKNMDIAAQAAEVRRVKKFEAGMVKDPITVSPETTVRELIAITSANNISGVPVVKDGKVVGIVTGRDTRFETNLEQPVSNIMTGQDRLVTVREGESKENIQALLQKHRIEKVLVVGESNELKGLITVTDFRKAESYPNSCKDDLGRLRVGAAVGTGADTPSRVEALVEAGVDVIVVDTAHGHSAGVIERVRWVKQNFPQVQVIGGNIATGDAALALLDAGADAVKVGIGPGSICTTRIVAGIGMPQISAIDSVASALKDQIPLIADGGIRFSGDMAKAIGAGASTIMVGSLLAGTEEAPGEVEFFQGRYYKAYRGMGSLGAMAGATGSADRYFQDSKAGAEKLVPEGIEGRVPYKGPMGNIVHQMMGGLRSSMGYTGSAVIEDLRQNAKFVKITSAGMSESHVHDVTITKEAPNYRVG
Text: NADH production, NAD(P)H-Glo luminescence on GuaB^Ab

GuaB^Sa, sequence (Q2FJM6 whole entry): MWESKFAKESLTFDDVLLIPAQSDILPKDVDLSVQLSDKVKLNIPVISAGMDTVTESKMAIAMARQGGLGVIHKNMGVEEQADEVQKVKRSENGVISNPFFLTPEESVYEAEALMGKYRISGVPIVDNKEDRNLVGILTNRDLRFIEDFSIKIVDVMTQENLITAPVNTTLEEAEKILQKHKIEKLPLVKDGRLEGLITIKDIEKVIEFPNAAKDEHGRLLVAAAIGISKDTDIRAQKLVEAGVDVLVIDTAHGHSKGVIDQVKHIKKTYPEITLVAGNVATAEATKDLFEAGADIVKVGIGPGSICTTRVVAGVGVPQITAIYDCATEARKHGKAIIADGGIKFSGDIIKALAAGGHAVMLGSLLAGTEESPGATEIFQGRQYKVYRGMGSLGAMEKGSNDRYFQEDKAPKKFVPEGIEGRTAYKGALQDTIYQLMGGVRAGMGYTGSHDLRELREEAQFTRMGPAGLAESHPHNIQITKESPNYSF

| Compound | IC50 (GuaB^Sa) | IC50 (GuaB^Ec) | IC50 (hIMPDH2) | IC50 (GuaB^Ab) |
| --- | --- | --- | --- | --- |
| C[C@H](Nc1ccc2ncc(CO)cc2c1)C(=O)Nc1ccc(Cl)c(N(C)C)c1 [G2] | 3.5 nM | 15.8 nM | > 50000 nM | 0.666 nM |
| C[C@H](Nc1ccc2ncc(CO)cc2c1)C(=O)Nc1ccc(Br)nc1 [G3] | 2.45 nM | 91 nM | > 50000 nM | 0.975 nM |
| C[C@H](Nc1ccc(-n2cncn2)cc1)C(=O)Nc1ccc2sc(-c3cc[n+]([O-])cc3)nc2c1 [G4] | 0.62 nM | 903 nM | > 50000 nM | 0.617 nM |
| C[C@H](Nc1ccc(-n2cccn2)cc1)C(=O)Nc1ccc2sc(-c3ccncc3)nc2c1 [G5] | 0.511 nM | 569 nM | > 50000 nM | 0.394 nM |
| C[C@H](Nc1ccc2ncc(CO)cc2c1)C(=O)Nc1ccc(Cl)c(N2CCOCC2)c1 [G6] | 0.801 nM | 5.9 nM | > 50000 nM | 0.564 nM |
